For 21 molecules, IC50 results are on record in patent publication EP4644396A1 (Visionpharma (Nantong) Co., Ltd, priority 2022, dated 2024).

Where only a bound is given, the exact number is not on record here.

In the first assay the target is T1, human TLR8 (Homo sapiens, UniProt Q9NR97).
T1 construct: expressed in transfected cells
T1 sequence (Q9NR97 27-1041): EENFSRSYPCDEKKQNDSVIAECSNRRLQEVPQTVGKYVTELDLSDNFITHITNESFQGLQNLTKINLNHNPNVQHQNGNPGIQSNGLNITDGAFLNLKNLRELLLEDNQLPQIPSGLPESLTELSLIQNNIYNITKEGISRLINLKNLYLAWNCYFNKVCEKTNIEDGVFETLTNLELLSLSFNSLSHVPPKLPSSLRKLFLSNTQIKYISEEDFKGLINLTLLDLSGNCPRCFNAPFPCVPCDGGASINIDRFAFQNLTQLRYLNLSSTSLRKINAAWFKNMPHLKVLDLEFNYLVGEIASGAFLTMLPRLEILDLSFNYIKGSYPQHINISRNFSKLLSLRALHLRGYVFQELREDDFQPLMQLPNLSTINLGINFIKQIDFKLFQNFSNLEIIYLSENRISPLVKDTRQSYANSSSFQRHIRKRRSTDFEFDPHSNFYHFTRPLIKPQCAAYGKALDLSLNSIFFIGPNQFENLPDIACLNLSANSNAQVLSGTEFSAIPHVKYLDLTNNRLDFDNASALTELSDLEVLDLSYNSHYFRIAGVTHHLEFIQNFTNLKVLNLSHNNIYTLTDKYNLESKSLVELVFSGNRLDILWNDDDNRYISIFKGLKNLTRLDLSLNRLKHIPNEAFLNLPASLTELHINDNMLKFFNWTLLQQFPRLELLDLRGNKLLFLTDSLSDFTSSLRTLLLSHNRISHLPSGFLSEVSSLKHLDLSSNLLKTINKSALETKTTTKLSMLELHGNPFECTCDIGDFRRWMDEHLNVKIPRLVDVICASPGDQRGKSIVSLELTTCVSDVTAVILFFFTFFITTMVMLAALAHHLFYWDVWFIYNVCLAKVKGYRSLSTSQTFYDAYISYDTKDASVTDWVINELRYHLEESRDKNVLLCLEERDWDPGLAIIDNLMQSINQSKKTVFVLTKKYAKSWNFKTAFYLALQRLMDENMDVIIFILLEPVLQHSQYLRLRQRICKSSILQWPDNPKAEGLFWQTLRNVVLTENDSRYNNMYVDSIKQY
In words: HEK-Blue hTLR8 SEAP reporter gene inhibition assay. Conditions: HEK-Blue hTLR8 IC50 (µM). In kind it is cell-based. On the procedure:
HEK-Blue cells with stable expression of human TLR7 or TLR8 were used in the evaluation of inhibitory activity of compounds in the present invention against TLR7 or TLR8, by using its ability to induce the SEAP reporting gene under the control of the fusion of IFN-β minimum promoters into five NF-κB and ap-1 binding sites, as follows: hTLR7 HEK-Blue cells (Invivogen, 80, 000 cells per well) or hTLR8 HEK-Blue cells (60, 000 cells per well) were added to a 96-well cell culture plate. A solution of the testing compounds were added to each well, with the final concentration of tested compounds in the medium ranged from 0.001 to 36 µM and the culture was incubated for 15 minutes. M5049 was used as positive controls in the testing.
Then a TLR7 ligand (Gardiquimod, purchased from MedChemExpress, with final concentration of ligand in cell culture medium kept at 10 µM) or a TLR8 ligand (purchased from MedChemExpress with final concentration in cell culture media at 10 µM) and the culture was incubated for 20 hours. According to the manufacturer's instructions, a HEK-Blue reagent Quanti-blue (Invivogen) was used to detect the SEAP levels in cell cultures. The half […] concentration or IC50 was calculated by using GraphPad Prism. […] Table 1: Activities of examples in this invention to hTLR7/8 in HEK-Blue Cells
What is called IC50 is the concentration that inhibits the measured activity by half. The molecule `C[C@@H]1CN(c2ccc(C#N)n3ncc(F)c23)Cc2c3c(nn21)CN(Cc1ccn[nH]1)CC3` [Example I-29] displayed an IC50 below 0.1 µM.

Staying with this assay, now noted: hTLR8 HEK-Blue cells, TLR8 ligand 10 µM, 20 hours, SEAP by Quanti-blue; class symbols; read-out: HEK-Blue hTLR8 IC50.
In the case of `C[C@@H]1CN(c2ccc(C#N)n3ncc(F)c23)Cc2c3c(nn21)CC(C)(N)CC3` (stereo partly drawn) [Example I-71, 4-((4R)-8-amino-4,8-dimethyl-3,4,7,8,9,10-hexahydropyrazino[1,2-b]indazol-2(1H)-yl)-3-fluoropyrazolo[1,5-a]pyridine-7-carbonitrile], the IC50 is below 0.1 µM.

In the case of `C[C@@H]1CN(c2ccc(C#N)n3ncc(F)c23)Cc2c3c(nn21)C(CO)CNC3` (stereo partly drawn) [Example I-35, 3-Fluoro-4-((7R)-4-(hydroxymethyl)-7-methyl-1,3,4,7,8,10-hexahydropyrido[4',3':3,4]pyrazolo[1,5-a]pyrazin-9(2H)-yl)pyrazolo[1,5-a]pyridine-7-carbonitrile], the IC50 is below 0.1 µM.

Consider `C[C@@H]1CN(c2ccc(C#N)n3ncc(F)c23)Cc2c3c(nn21)CC(N)C(O)C3` (stereo partly drawn) [Example I-37, 4-((4R)-8-amino-9-hydroxy-4-methyl-3,4,7,8,9,10-hexahydropyrazino [1,2-b]indazol-2(1H)-yl)-3-fluoropyrazolo[1,5-a]pyridine-7-carbonitrile], for which the IC50 is below 0.1 µM.

For “4-((4R,9S)-4,9-dimethyl-8-((2R,6R)-6-methylmorpholine-2-carbonyl)-3,4,7,8,9,10-hexahydropyrido[3',4':3,4]pyrazolo[1,5-a]pyrazin-2(1H)-yl)-3-fluoropyrazolo[1,5-a]pyridine-7-carbonitrile [Example I-122]”, the IC50 was below 0.1 µM.

Consider `C[C@@H]1CN(c2ccc(C#N)n3ncc(F)c23)Cc2c3c(nn21)CN(C1CCNCC1O)C(=O)C3` (stereo partly drawn) [Example I-32, 3-Fluoro-4-((4R)-8-(3-hydroxypiperidin-4-yl)-4-methyl-9-oxo-3,4,7,8,9,10-hexahydropyrido[3',4':3,4]pyrazolo[1,5-a]pyrazin-2(1H)-yl)pyrazolo[1,5-a]pyridine-7-carbonitrile], for which the half-inhibitory concentration (IC50) is below 0.1 µM.

As to `C[C@@H]1CN(c2ccc(C#N)n3ncc(F)c23)Cc2c3c(nn21)CN(CC(=O)N1C[C@H](C)N[C@@H](C)C1)[C@@H](C)C3` [Example I-145, 4-((4R,9S)-8-(2-((3S,5S)-3,5-dimethylpiperazin-1-yl)-2-oxoethyl)-4,9-dimethyl-3,4,7,8,9,10-hexahydropyrido[3',4':3,4]pyrazolo[1,5-a]pyrazin-2(1H)-yl)-3-fluoropyrazolo[1,5-a]pyridine-7-carbonitrile], the IC50 is below 0.1 µM.

With `CCC1CN(c2ccc(C#N)n3ncc(F)c23)Cc2c3c(nn21)CNCC3` (stereo not drawn) [Example I-17, 4-(4-Ethyl-3,4,7,8,9,10-hexahydropyrido[3',4':3,4]pyrazolo[1,5-a]pyrazin-2(1H)-yl)-3-fluoropyrazolo[1,5-a]pyridine-7-carbonitrile], the IC50 is above 0.1 µM.

Turning to `C[C@@H]1CN(c2ccc(C#N)n3ncc(F)c23)Cc2c3c(nn21)CC(N1CCOCC1)CC3` (stereo partly drawn) [Example I-31, 3-Fluoro-4-((4R)-4-methyl-8-morpholino-3,4,7,8,9,10-hexahydropyrazino[1,2-b]indazol-2(1H)-yl)pyrazolo[1,5-a]pyridine-7-carbonitrile], the IC50 was below 0.1 µM.

Regarding `C[C@@H]1CN(c2ccc(C#N)n3ncc(F)c23)Cc2c3c(nn21)CCNC3CO` (stereo partly drawn) [Example I-46, 3-fluoro-4-((7R)-1-(hydroxymethyl)-7-methyl-1,3,4,7,8,10-hexahydropyrido[4',3':3,4]pyrazolo[1,5-a]pyrazin-9(2H)-yl)pyrazolo[1,5-a]pyridine-7-carbonitrile], the IC50 is below 0.1 µM.

Take `C[C@@H]1CN(c2ccc(C#N)n3ncc(F)c23)Cc2c3c(nn21)CC(C)(C)NC3` [Example I-78, (R)-3-Fluoro-4-(3,3,7-trimethyl-1,3,4,7,8,10-hexahydropyrido[4',3':3,4]pyrazolo [1,5-a]pyrazin-9(2H)-yl)pyrazolo[1,5-a]pyridine-7-carbonitrile]: the IC50 is below 0.1 µM.

On to `C[C@@H]1CN(c2ccc(C#N)n3ncc(F)c23)Cc2c3c(nn21)CN(CCO)CC3` [Example I-19, (R)-3-Fluoro-4-(8-(2-hydroxyethyl)-4-methyl-3,4,7,8,9,10-hexahydropyrido[3',4':3,4]pyrazolo[1,5-a]pyrazin-2(1H)-yl)pyrazolo[1,5-a]pyridine-7-carbonitrile], for which the half-inhibitory concentration (IC50) is above 0.1 µM.

Consider `CC(C)C1NCCc2c1nn1c2CN(c2ccc(C#N)n3ncc(F)c23)C[C@H]1C` (stereo partly drawn) [Example I-70, 3-Fluoro-4-((4R)-7-isopropyl-4-methyl-3,4,7,8,9,10-hexahydropyrido[3',4':3,4]pyrazolo[1,5-a]pyrazin-2(1H)-yl)pyrazolo[1,5-a]pyridine-7-carbonitrile], for which the IC50 is below 0.1 µM.

In the case of `C[C@@H]1CN(c2ccc(C#N)n3ncc(F)c23)Cc2c3c(nn21)CNCC3O` (stereo partly drawn) [Example I-38, 3-Fluoro-4-((4R)-10-hydroxy-4-methyl-3,4,7,8,9,10-hexahydropyrido[3',4':3,4]pyrazolo[1,5-a]pyrazin-2(1H)-yl)pyrazolo[1,5-a]pyridine-7-carbonitrile], the IC50 was above 0.1 µM.

As to “4-((4R,9S)-8-(L-prolyl)-4,9-dimethyl-3,4,7,8,9,10-hexahydropyrido[3',4':3,4]pyrazolo [1,5-a]pyrazin-2(1H)-yl)-3-fluoropyrazolo[1,5-a]pyridine-7-carbonitrile [Example I-114]”, the half-maximal inhibitory concentration (IC50) is below 0.1 µM.

Take `C[C@@H]1CN(c2ccc(C#N)n3ncc(F)c23)Cc2c3c(nn21)CC(N)CC3` (stereo partly drawn) [Example I-20, 4-((4R)-8-amino-4-methyl-3,4,7,8,9,10-hexahydropyrazino[1,2-b]indazol-2(1H)-yl)-3-fluoropyrazolo[1,5-a]pyridine-7-carbonitrile]: the IC50 is below 0.1 µM.

Take `C[C@@H]1CN(c2ccc(C#N)n3ncc(F)c23)Cc2c3c(nn21)CC1CCC3N1` (stereo partly drawn) [Example I-44, 3-Fluoro-4-((4R)-4-methyl-1,3,4,7,8,9,10,11-octahydro-2H-8,11-epiminocyclohepta [3,4]pyrazolo[1,5-a]pyrazin-2-yl)pyrazolo[1,5-a]pyridine-7-carbonitrile]: the IC50 is below 0.1 µM.

As for `CC(C)CC1NCCc2c1nn1c2CN(c2ccc(C#N)n3ncc(F)c23)C[C@H]1C` (stereo partly drawn) [Example I-69, 3-Fluoro-4-((4R)-7-isobutyl-4-methyl-3,4,7,8,9,10-hexahydropyrido[3',4':3,4]pyrazolo [1,5-a]pyrazin-2(1H)-yl)pyrazolo[1,5-a]pyridine-7-carbonitrile], the IC50 was below 0.1 µM.

As to `C[C@@H]1CN(c2ccc(C#N)n3ncc(F)c23)Cc2c3c(nn21)CC(CN1CCOCC1)NC3` (stereo partly drawn) [Example I-47, 3-Fluoro-4-((7R)-7-methyl-3-(morpholinomethyl)-1,3,4,7,8,10-hexahydropyrido [4',3':3,4]pyrazolo[1,5-a]pyrazin-9(2H)-yl)pyrazolo[1,5-a]pyridine-7-carbonitrile], the 50% inhibitory concentration (IC50) was above 0.1 µM.

For `COC[C@@H]1CCCN1CC(=O)N1Cc2nn3c(c2C[C@@H]1C)CN(c1ccc(C#N)n2ncc(F)c12)C[C@H]3C` [Example I-109, 3-Fluoro-4-((4R,9S)-8-(2-((S)-2-(methoxymethyl)pyrrolidin-1-yl)acetyl)-4,9-dimethyl-3,4,7,8,9,10-hexahydropyrido[3',4':3,4]pyrazolo[1,5-a]pyrazin-2(1H)-yl)pyrazolo[1,5-a]pyridine-7-carbonitrile], the IC50 is below 0.1 µM.

In the case of `C[C@@H]1CN(c2ccc(C#N)n3ncc(F)c23)Cc2c3c(nn21)CC(CO)NC3` (stereo partly drawn) [Example I-36, 3-Fluoro-4-((7R)-3-(hydroxymethyl)-7-methyl-1,3,4,7,8,10-hexahydropyrido[4',3':3,4]pyrazolo[1,5-a]pyrazin-9(2H)-yl)pyrazolo[1,5-a]pyridine-7-carbonitrile], the IC50 was below 0.1 µM.
